# Results from US8163804B2 (priority 2005, dated 2012).
# Read-outs that look alike come from different tables or passages of the source.
# Legend:
# [1] = tested on: Resistant Cotton Melon Aphid (Aphis gossypii); format: in vivo; conditions: 3 ppm, foliar spray on cucumber, 5 days after spraying
# [2] = tested on: Rice Leafroller (Cnaphalocrocis medinalis); assay: Control test on rice leafroller, nursery box application of paddy rice, infected leaf rate after 50 days; format: in vivo; conditions: 50 days after transplantation
# Protocol: (§1) Control Test on Small Brown Planthopper (Laodelphax striatellus) and Rice Leafroller (Cnaphalocrocis medinalis) on Nursery Box Application of Paddy Rice
# (§2) Rice (cultivar: Nihonbare) cultured in a nursery box was treated with 50 g of a granule formulation per box, and then transplanted to the rice field. For the control effect against Laodelphax striatellus, the number of parasitic insects was examined for 30 stumps per plot after 40 days and 60 days from the transplantation. In addition, for the control effect against Cnaphalocrocis medinalis, the number of infected leaves was examined for 100 stumps per plot after 50 days from the transplantation, and the infected leaf rate was calculated. In the Table, gai represents the amount of active ingredients (g).
# [3] = tested on: Rice Striped Stem Borer (Chilo suppressalis); conditions: 5 gai/box
# [4] = tested on: Small Brown Planthopper (Laodelphax striatellus); assay: Control test on small brown planthopper, nursery box application of paddy rice, number of parasitic insects after 40 and 60 days; format: in vivo
# Protocol: as §1, §2
# [5] = tested on: Rice Blast (Pyricularia oryzae); format: in vivo; conditions: in vivo
# [6] = tested on: Green Peach Aphid (Myzus persicae); format: in vivo; conditions: 3 ppm, foliar spray on eggplant, 5 days after spraying
# [7] = tested on: Tiger Moth (Trichoplusia ni); assay: Insecticidal test on tiger moth, cabbage leaf dip, mortality after 6 days; format: in vivo; conditions: 0.5 ppm; 6 days after treatment
# Protocol: Insecticidal Test on Tiger Moth (Trichoplusia ni)
# Cut leaves of cabbages (cultivar: shiki-kaku) were immersed in a liquid chemical which was diluted and prepared to the prescribed concentration for 30 seconds, air-dried, and then put into a plastic vessel having a diameter of 9 cm. Each of 10 second-stage insects of Trichoplusia ni was inoculated and the resulting vessel was allowed to stand in an isothermal chamber maintained at 25 degree centigrade. After 6 days from the treatment, the number of surviving insects was examined and the mortality was calculated (two replications of 10 insects per plot).
# [8] = tested on: 2-spotted Spider Mite (Tetranychus urticae); assay: Insecticidal test on 2-spotted spider mite, kidney bean leaf disc with eggs, hatchability of larvae after 6 days; format: in vivo; conditions: 50 ppm; 6 days after spraying
# Protocol: Insecticidal Test on 2-spotted Spider Mite (Tetranychus urticae)
# A plastic cup having a diameter of 8 cm was filled with water and covered by a lid with a hole having a diameter of 1 cm. Absorbent cotton was put on the top of the lid and dropped into water from the lid such that the absorbent cotton was always in a wet state due to a capillary phenomenon. A leaf disc having a diameter of 2 cm was prepared with primary leaves of kidney beans (cultivar: Green top) and placed on the aforementioned absorbent cotton. 4 adult female insects of Tetranychus urticae were inoculated thereon. Next day, the adult female insects were removed, and then the number of insect egg was examined. A liquid chemical which was prepared to the prescribed concentration was sprayed by using a vertical sprayer. After spraying, the resulting cup was allowed to stand in an isothermal chamber maintained at 25 degree centigrade. After 6 days from spraying, the number of hatched larvae that survived on the leaf disc was examined and the hatchability of larvae was calculated (two replications of one concentration per chemical).
# [9] = tested on: Small Brown Planthopper (Laodelphax striatellus); assay: Insecticidal test on small brown planthopper, sprayed rice seedlings, mortality after 6 days; format: in vivo; conditions: 3 ppm, sprayed rice seedlings, 6 days after treatment
# Protocol: Insecticidal Test on Small Brown Planthopper (Laodelphax striatellus)
# A liquid chemical which was diluted and prepared to the prescribed concentration was sprayed on rice seedlings (cultivar: koshihikari), air-dried, and then 10 three-stage insects of Laodelphax striatellus were put into a glass test tube having a diameter of 3 cm and a height of 10 cm along with the seedlings. The test tube was cotton plugged. After 6 days from the treatment, the number of surviving insects was examined and the mortality was calculated (two replications of 10 insects per plot).
# [10] = tested on: Clubroot (Plasmodiophora brassicae); assay: Control test on clubroot of cabbage, soil treatment, control value after 60 days; format: in vivo; conditions: 60 days after treatment
# Protocol: (§3) Control Test on Turnip Moth (Agrotis segetum) and Clubroot (Plasmodiophora brassicae) of Cabbage due to Soil Treatment
# (§4) A powder in a prescribed amount was mixed to soil and cabbages (cultivar: shiki-kaku) cultured on a cell medium were planted out. After 7 days from the treatment, the number of infected stumps due to Agrotis segetum was examined and the rate of infected stumps was calculated. Furthermore, after 60 days from the treatment, stumps were picked out, and lesion formation of Plasmodiophora brassicase was examined according to the degrees of severity. The control value was calculated from the average severity index of each plot according to the following equation. In the Table, gai represents the amount of active ingredients (g).
# Severity Index • 0: No clubroot attached • 1: Clubroot was attached at a portion of from 1 to 25% of the whole root • 2: Clubroot was attached at a portion of from 25 to 50% of the whole root • 3: Clubroot was attached at a portion of from 50 to 75% of the whole root • 4: Clubroot was attached at a portion of from 75% or more of the whole root Control Value=(1−average severity in the treated plot/average severity in the untreated plot)×100
# [11] = tested on: Turnip Moth (Agrotis segetum); assay: Control test on turnip moth of cabbage, soil treatment, rate of infected stumps after 7 days; format: in vivo; conditions: 7 days after treatment
# Protocol: as §3, §4
# [12] = tested on: Oriental Fruit Moth (Grapholita molesta); assay: Control test on oriental fruit moth of pear, spray, rate of infected fruit after 40 days; format: in vivo; conditions: 40 days after spraying
# Protocol: (§5) Control Test on Oriental Fruit Moth (Grapholita molesta) and Scab (Venturia nashicola) of Pear
# (§6) A liquid chemical which was prepared to the prescribed concentration was sufficiently sprayed on 17-year-old pears (cultivar: Hosui) (early June). After 40 days from spraying, the number of infected fruits due to Grapholita molesta was examined for all fruit in the plot, and the rate of infected fruit was calculated. Furthermore, after 14 days from spraying, infection of Venturia nashicola was examined by the degrees for optional 200 leaves in the plot and the severity index was calculated according to the following equation. Severity index=Z(number of infected leaves by the degrees×index)×100/(number of examined leaves×5)
# [13] = tested on: Scab (Venturia nashicola); assay: Control test on scab of pear, spray, severity index after 14 days; format: in vivo; conditions: 14 days after spraying
# Protocol: as §5, §6
# [14] = tested on: Powdery Mildew (Sphaerotheca fuliginea); assay: Control test on powdery mildew of cucumbers, spray, control value from severity index; format: in vivo
# Protocol: (§7) Insecticidal Test on Cucumber Moth (Diaphania indica) and Control Test on Powdery Mildew (Sphaerotheca fuliginea) of Cucumbers
# (§8) A liquid chemical which was prepared to the prescribed concentration was sufficiently sprayed on cucumbers (cultivar: sagami-hanpaku) cultured in a greenhouse. After 7 days from spraying, leaves were cut off and put into a plastic cup (diameter: 10 cm, height: 10 cm) along with 5 of second-stage larvae of Diaphania indica, and the mortality was examined 4 days thereafter. Furthermore, 1 day after spraying, the leaves of cucumbers which were previously arranged to be infected by pathogen were uniformly wiped with Sphaerotheca fuliginea thereon using a paintbrush for inoculation and examined after 10 days thereafter. The area occupied by lesion per leaf of cucumber was examined in accordance with the following index, and the control value was calculated from the average severity index of each plot according to the following equation (two replications).
# Severity Index • 0: No lesion • 1: Lesion area was not more than 5% • 2: Lesion area was from 6 to 25% • 3: Lesion area was from 26 to 50% • 4: Lesion area was not less than 51% Control Value=(1−average severity in the treated plot/average severity in the untreated plot)×100
# [15] = tested on: Cucumber Moth (Diaphania indica); assay: Insecticidal test on cucumber moth, sprayed cucumber leaves, mortality; format: in vivo
# Protocol: as §7, §8
# [16] = tested on: Common Straight Swift Butterfly (Parnara guttata); assay: Control test on common straight swift butterfly of paddy rice, powder spray, number of insects after 20 days (Test Example 8); format: in vivo; conditions: 20 days after spraying
# [17] = tested on: Rice Blast (Pyricularia oryzae); format: in vivo; conditions: panicle blast, 30 days after spraying
smiles,measurement,setting,value
Cc1cc(C(F)(C(F)(F)F)C(F)(F)F)cc(C)c1NC(=O)c1cccc(NC(=O)c2cccnc2Cl)c1F [compound 639],Control rate (%),[1],12%
same,Cnaphalocrocis medinalis Infected leaf rate (%),[2]; 5 gai/box,0.39%
same,Chilo suppressalis Mortality (%),[3],90%
same,Laodelphax striatellus Number of parasitic insects/30 stumps,"[4]; 5 gai/box, 40 days",65 insects/30 stumps
same,Laodelphax striatellus Number of parasitic insects/30 stumps,"[4]; 5 gai/box, 60 days",120 insects/30 stumps
same,Pyricularia oryzae Control value,[5],3
same,Control rate (%),[6],10%
same,Mortality (%),[7],80%
same,Hatchability of larvae (%),[8],82%
same,Mortality (%),[9],0%
O=[N+]([O-])c1ccc(NS(=O)(=O)c2ccc(Cl)c(C(F)(F)F)c2)c(Cl)c1 [flusulfamide],Plasmodiophora brassicae Control value,[10]; 60 gai/10a,91
same,Agrotis segetum Infected stump rate (%),[11]; 60 gai/10a,36.1%
CC(C)CC(C)c1sccc1NC(=O)c1cn(C)nc1C(F)(F)F (centres unmarked) [penthiopyrad],Grapholita molesta Infected fruit rate (%),[12]; 75 ppm,19.8%
same,Venturia nashicola Severity index,[13]; 75 ppm,3.7
same,Sphaerotheca fuliginea Control value,[14]; 3.15 ppm,95
same,mortality at 3.15 ppm,"[15]; Diaphania indica, 3.15 ppm",0%
CCCc1cc(C(F)(C(F)(F)F)C(F)(F)F)cc(Br)c1NC(=O)c1cccc(NC(=O)c2ccccc2)c1 [Compound 178],Plasmodiophora brassicae Control value,[10]; 100 gai/10a,5
same,Grapholita molesta Infected fruit rate (%),[12]; 50 ppm,3.4%
same,Venturia nashicola Severity index,[13]; 50 ppm,51.5
same,Sphaerotheca fuliginea Control value,[14]; 10 ppm,0
same,Diaphania indica Mortality (%),[15]; 10 ppm,90%
same,Agrotis segetum Infected stump rate (%),[11]; 100 gai/10a,5.6%
CC(Oc1ccc(Cl)cc1Cl)C(=O)NC(C)(C#N)C(C)C (centres unmarked) [fenoxanil],Number (insects/100 stumps),[16]; 40 gai/10a,155 insects/100 stumps
same,Pyricularia oryzae Control value,[17]; 40 gai/10a,88
C[C@H]1O[C@H](O[C@H]2[C@H](O)[C@@H](O)[C@@H](O)[C@H](O)[C@@H]2O)[C@@H](N)C[C@@H]1NC(=N)C(=O)O [kasugamycin],Number (insects/100 stumps),[16]; 12 gai/10a,162 insects/100 stumps
same,Pyricularia oryzae Control value,[17]; 12 gai/10a,91
Cc1cc(C(F)(C(F)(F)F)C(F)(F)F)cc(C)c1NC(=O)c1cccc(N(C)C(=O)c2ccc(Cl)nc2)c1F [Compound 1247],Control rate (%),[1],10%
same,Cnaphalocrocis medinalis Infected leaf rate (%),[2]; 5 gai/box,0.25%
same,Laodelphax striatellus Number of parasitic insects/30 stumps,"[4]; 5 gai/box, 40 days",69 insects/30 stumps
same,Laodelphax striatellus Number of parasitic insects/30 stumps,"[4]; 5 gai/box, 60 days",121 insects/30 stumps
same,Control rate (%),[6],6%
same,Mortality (%),[7],65%
same,Hatchability of larvae (%),[8],74%
same,Mortality (%),[9],5%
O=[N+]([O-])NC1=NCCN1Cc1ccc(Cl)nc1 [imidacloprid],Cnaphalocrocis medinalis Infected leaf rate (%),[2]; 1 gai/box,1.77%
same,Laodelphax striatellus Number of parasitic insects/30 stumps,"[4]; 1 gai/box, 40 days",0 insects/30 stumps
same,Laodelphax striatellus Number of parasitic insects/30 stumps,"[4]; 1 gai/box, 60 days",9 insects/30 stumps
Cc1cc(C(F)(C(F)(F)F)C(F)(F)F)cc(C)c1NC(=O)c1cccc(N(C)C(=O)c2cccnc2F)c1F [Compound 1246],Cnaphalocrocis medinalis Infected leaf rate (%),[2]; 5 gai/box,0.28%
same,Chilo suppressalis Mortality (%),[3],95%
same,Laodelphax striatellus Number of parasitic insects/30 stumps,"[4]; 5 gai/box, 40 days",77 insects/30 stumps
same,Laodelphax striatellus Number of parasitic insects/30 stumps,"[4]; 5 gai/box, 60 days",137 insects/30 stumps
same,Pyricularia oryzae Control value,[5],0
O=C1OCc2c(Cl)c(Cl)c(Cl)c(Cl)c21 [fthalide],Number (insects/100 stumps),[16]; 100 gai/10a,150 insects/100 stumps
same,Pyricularia oryzae Control value,[17]; 100 gai/10a,90
